Biological target: MAGL (Homo sapiens (Human), UniProt Q99685)
Assay: 2-AG assay: MAGL inhibitory activity by hydrolysis of 2-arachidonoylglycerol to arachidonic acid (mass spectrometry)
Assay type: biochemical
Settings: measured in 2-AG assay (footnote [b]); 8 μM 2-arachidonoylglycerol
Experimental: Alternatively, compounds were profiled for MAGL inhibitory activity by determining the enzymatic activity by following the hydrolysis of the natural substrate 2-arachidonoylglycerol resulting in arachidonic acid, which can be followed by mass spectrometry. This assay is hereinafter abbreviated “2-AG assay”.
A C18 SPE cartridge (G9205A) was used in an acetonitrile/water liquid setup. […] The activity of the compounds was calculated based on the ratio of intensities [arachidonic acid/d8-arachidonic acid].

Chain of MAGL (Q99685 whole entry, species assumed): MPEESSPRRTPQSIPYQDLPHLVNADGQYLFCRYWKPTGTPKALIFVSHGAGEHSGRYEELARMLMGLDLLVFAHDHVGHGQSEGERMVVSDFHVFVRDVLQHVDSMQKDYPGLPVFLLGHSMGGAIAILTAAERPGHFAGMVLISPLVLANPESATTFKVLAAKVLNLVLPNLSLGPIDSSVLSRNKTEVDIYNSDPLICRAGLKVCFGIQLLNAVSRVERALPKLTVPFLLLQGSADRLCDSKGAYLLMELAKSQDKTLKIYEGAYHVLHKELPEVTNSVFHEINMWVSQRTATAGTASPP

| Structure (SMILES) | IC50 [nM] |
| --- | --- |
| O=C1CO[C@H]2CCN(C(=O)N3CC(Oc4ccc(C(F)(F)F)cc4)C3)C[C@H]2N1 [Example 118] | 132 |
| CC1CN(c2cccc(OC3CN(C(=O)N4CC[C@@H]5OCC(=O)N[C@@H]5C4)C3)c2Cl)C1 [Example 272, (+)-(4aR,8aS)-6-[3-[2-Chloro-3-(3-methylazetidin-1-yl)phenoxy]azetidine-1-carbonyl]-4,4a,5,7,8,8a-hexahydropyrido[4,3-b][l,4]oxazin-3-one] | 94 |
| N#Cc1cc(OC2CN(C(=O)N3CC[C@@H]4OCC(=O)N[C@@H]4C3)C2)ccc1C(F)(F)F [Example 263, (+)-5-[1-[(4aR,8aS)-3-Oxo-4,4a,5,7,8,8a-hexahydropyrido[4,3-b][1,4]oxazine-6-carbonyl]azetidin-3-yl]oxy-2-(trifluoromethyl)benzonitrile] | 1100 |
| O=C1CO[C@H]2CCN(C(=O)N3CC(Oc4ccc(C(F)(F)F)c(C5CC5)c4)C3)C[C@H]2N1 [Example 260] | 18 |
| O=C1CO[C@H]2CCN(C(=O)N3CC(COc4cc(C(F)(F)F)cc(F)n4)C3)C[C@H]2N1 [Example 222, (4aR,8aS)-6-[3-[[6-Fluoro-4-(trifluoromethyl)-2-pyridyl]oxymethyl]azetidine-1-carbonyl]-4,4a,5,7,8,8a-hexahydropyrido[4,3-b][1,4]oxazin-3-one] | 143 |
| O=C1CO[C@H]2CCN(C(=O)N3CCC(COc4ccccc4Cl)C3)C[C@H]2N1 (stereo partly drawn) [Example 91] | 99 |
| O=C1CO[C@H]2CCN(C(=O)N3CCC(Oc4ccc(Cl)c(N5CCOCC5)c4)CC3)C[C@H]2N1 [Example 121] | 151 |
| O=C1CO[C@H]2CCN(C(=O)N3CC(Oc4cccc(N5CC6(CCC6)C5)c4Cl)C3)C[C@H]2N1 [Example 271, (+)-(4aR,8aS)-6-[3-[3-(2-Azaspiro[3.3]heptan-2-yl)-2-chloro-phenoxy]azetidine-1-carbonyl]-4,4a,5,7,8,8a-hexahydropyrido[4,3-b][1,4]oxazin-3-one] | 20 |
| O=C1CO[C@H]2CCN(C(=O)N3CC(Oc4cccc(N5CC6(CCCCO6)C5)c4Cl)C3)C[C@H]2N1 [Example 276, (+)-(4aR,8aS)-6-[3-[2-chloro-3-(5-oxa-2-azaspiro[3.5]nonan-2-yl)phenoxy]azetidine-1-carbonyl]-4,4a,5,7,8,8a-hexahydropyrido[4,3-b][1,4]oxazin-3-one] | 19 |
| O=C1CO[C@H]2CCN(C(=O)N3CC(OCc4nc(-c5ccc(F)cc5)cs4)C3)C[C@H]2N1 [Example 244] | 30 |
| Cc1ccc(COC2CN(C(=O)N3CC[C@@H]4OCC(=O)N[C@@H]4C3)C2)c(C)c1 [Example 291] | 28 |
| O=C1CO[C@H]2CCN(C(=O)N3CC(Oc4ccc(C(F)(F)F)cc4Cl)C3)C[C@H]2N1 [Example 213] | 98 |

Stronger by IC50, values ahead:

| IC50 [nM] | Structure (SMILES) |
| --- | --- |
| 2 | Cc1ccc(CCC2CN(C(=O)N3CC[C@@H]4OCC(=O)N[C@@H]4C3)C2)c(C(F)(F)F)c1 [Example 219] |
| 7 | O=C1CO[C@H]2CCN(C(=O)N3CCC(Oc4ccc(Cl)c(C5CC5)c4)CC3)C[C@H]2N1 [Example 120] |
| 3 | O=C1CO[C@H]2CCN(C(=O)N3CC(OCc4ccc(Cl)c(Cl)c4)C3)C[C@H]2N1 [Example 224] |
| 2 | O=C1CO[C@H]2CCN(C(=O)N3CC(OCc4cc(C(F)(F)F)c(C(F)(F)F)cn4)C3)C[C@H]2N1 [Example 234] |
| 6 | O=C1CO[C@H]2CCN(C(=O)N3CC(Oc4ccc(C(F)(F)F)c(N5CC6(CCC6)C5)c4)C3)C[C@H]2N1 [Example 265, (+)-(4aR,8aS)-6-[3-[3-(2-Azaspiro[3.3]heptan-2-yl)-4-(trifluoromethyl)phenoxy]azetidine-1-carbonyl]-4,4a,5,7,8,8a-hexahydropyrido[4,3-b][1,4]oxazin-3-one] |
| 5 | COc1cc(COC2CN(C(=O)N3CC[C@@H]4OCC(=O)N[C@@H]4C3)C2)ccc1C(F)(F)F [Example 88] |

From patent US11802133B2, “Heterocyclic compounds as monoacylglycerol lipase inhibitors” (Hoffmann-La Roche Inc., priority 2018, dated 2023)
